Assay [1] concerns the target T1, gereinigte rekombinante humane Transglutaminase 2 (Homo sapiens, UniProt P21980).
T1 construct: His6
T1 sequence (P21980 1-687): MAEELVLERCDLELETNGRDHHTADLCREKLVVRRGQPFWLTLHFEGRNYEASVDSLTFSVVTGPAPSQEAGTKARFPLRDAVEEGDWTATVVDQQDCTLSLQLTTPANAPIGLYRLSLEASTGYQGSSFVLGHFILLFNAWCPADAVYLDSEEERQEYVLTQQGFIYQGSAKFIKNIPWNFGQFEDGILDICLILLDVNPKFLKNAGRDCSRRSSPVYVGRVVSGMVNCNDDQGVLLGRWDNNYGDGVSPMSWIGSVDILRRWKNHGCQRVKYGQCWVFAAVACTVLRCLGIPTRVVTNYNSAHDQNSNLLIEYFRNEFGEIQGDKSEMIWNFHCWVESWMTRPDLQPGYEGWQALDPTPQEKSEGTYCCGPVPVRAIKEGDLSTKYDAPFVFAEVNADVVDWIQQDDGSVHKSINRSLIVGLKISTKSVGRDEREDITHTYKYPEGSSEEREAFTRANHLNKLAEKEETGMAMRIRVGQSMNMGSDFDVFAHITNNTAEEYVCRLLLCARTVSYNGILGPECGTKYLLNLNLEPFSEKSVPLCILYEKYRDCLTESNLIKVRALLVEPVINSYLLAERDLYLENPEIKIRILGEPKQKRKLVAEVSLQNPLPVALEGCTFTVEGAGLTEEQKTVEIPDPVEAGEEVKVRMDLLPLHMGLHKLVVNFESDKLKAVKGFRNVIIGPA
Nature of the assay: Selectivity test: fluorescence-based kinetic transglutaminase activity measurement (release of quencher from substrate peptide), Ansatz 2. Format: biochemical. To be noted: substrate peptide 50 µM; rhHis6TG2 0,25 µM; 6 % DMSO; Exc.: 310 nm Em.: 427 nm, 20 min. From the text: (§1) Selektivität der Messungen verschiedener Transglutaminasen
2. Ansatz: Abz-Asn-Glu(CAD-DNP)-Glu-Gln-Val-Ser-Pro-Leu-Thr-Leu-Leu-Lys (2) Transglutaminase: gereinigte rekombinante humane Transglutaminase 2

A further assay addresses T2, Faktor XIII (Homo sapiens, UniProt P00488).
T2 construct: 100 µl Citratplasma; from tissue; host or cells: citrate plasma
T2 sequence (P00488 39-732 limits assumed): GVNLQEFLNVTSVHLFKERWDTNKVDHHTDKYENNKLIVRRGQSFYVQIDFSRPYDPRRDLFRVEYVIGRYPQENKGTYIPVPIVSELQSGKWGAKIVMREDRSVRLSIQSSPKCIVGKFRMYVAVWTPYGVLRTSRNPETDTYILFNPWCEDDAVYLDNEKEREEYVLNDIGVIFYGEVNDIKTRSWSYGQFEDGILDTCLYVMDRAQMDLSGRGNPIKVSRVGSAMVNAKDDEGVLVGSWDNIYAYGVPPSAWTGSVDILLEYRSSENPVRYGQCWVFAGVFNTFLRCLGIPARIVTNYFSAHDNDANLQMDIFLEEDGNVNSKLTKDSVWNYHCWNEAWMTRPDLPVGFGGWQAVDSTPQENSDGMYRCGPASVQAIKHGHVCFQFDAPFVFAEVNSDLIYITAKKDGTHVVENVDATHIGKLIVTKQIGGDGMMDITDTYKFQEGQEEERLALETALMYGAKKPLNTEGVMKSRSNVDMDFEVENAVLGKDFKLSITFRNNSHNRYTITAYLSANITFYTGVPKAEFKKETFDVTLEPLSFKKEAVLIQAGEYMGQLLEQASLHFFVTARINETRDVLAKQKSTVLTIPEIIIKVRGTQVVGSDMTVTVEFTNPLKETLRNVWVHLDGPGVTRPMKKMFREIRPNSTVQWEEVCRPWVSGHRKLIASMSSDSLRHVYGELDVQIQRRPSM
As to the kind of experiment: Selectivity test: fluorescence-based kinetic transglutaminase activity measurement (release of quencher from substrate peptide), Ansatz 1. Format: biochemical. To be noted: substrate peptide 50 µM; Faktor XIII: 100 µl Citratplasma; 6 % DMSO; Exc.: 310 nm Em.: 427 nm, 20 min.
Source text: as §1
1. Ansatz: Substratpeptid: Abz-Ala-Pro-Glu(CAD-DNP)-Gln-Glu-Ala (3), Transglutaminase: Faktor XIII

Results on two molecules are retold here after patent EP1626095A1, “Fluorescence-based kinetic determination of transglutaminase activity” (N-Zyme BioTec GmbH, priority 2004, dated 2006).

Where a SMILES comes first, the peptide text is derived from it. [ ]: non-standard residue; d: D form. The star is where a group is joined. X1 = O=[N+]([O-])c1ccc(NCCCCCN*)c([N+](=O)[O-])c1; 2Abz = Nc1ccccc1C(=O)O

In the case of “2-Aminobenzoyl-L-asparaginyl-N^δ-[N-(2,4-dinitrophenyl)1-5-aminopentyl]-L-glutaminyl-L-glutamyl-L-glutaminyl-L-valinyl-L-serinyl-L-prolinyl-L-leucinyl-L-threoninyl-L-leucinyl-L-leucin-L-lysin [Verbindung 2]”, the “Ergebnis (Anstieg der Fluoreszenz)” value in assay [1] is “kein Anstieg der Fluoreszenz”.
With `C[C@H](NC(=O)[C@H](CCC(=O)O)NC(=O)[C@H](CCC(N)=O)NC(=O)[C@H](CCC(=O)NCCCCCNc1ccc([N+](=O)[O-])cc1[N+](=O)[O-])NC(=O)[C@@H]1CCCN1C(=O)[C@H](C)NC(=O)c1ccccc1N)C(=O)O` [Verbindung 3] (H-[2Abz]APE(X1)QEA-OH), on Faktor XIII, the “Ergebnis (Anstieg der Fluoreszenz)” value was “Ergebnis: kein Anstieg der Fluoreszenz”.
